Results: publication PMC11053447, “Human ABC and SLC Transporters: The Culprit Responsible for Unspecific PSMA-617 Uptake?” (Pharmaceuticals, 2024)

Experiments:
human PEPT2 = molecular target: T1, human PEPT2 (Homo sapiens, UniProt Q16348); test: SLC transporter substrate assay, CHO-K1-PEPT2 vs control CHO-K1 cells; details: 20 min; for Max. transporter-specific fold accumulation, without inhibitor / Max. transporter-specific fold accumulation, with inhibitor: 0.3 µM; for Max. transporter-specific fold accumulation, with inhibitor: Cefadroxil
T1 sequence (Q16348 1-729): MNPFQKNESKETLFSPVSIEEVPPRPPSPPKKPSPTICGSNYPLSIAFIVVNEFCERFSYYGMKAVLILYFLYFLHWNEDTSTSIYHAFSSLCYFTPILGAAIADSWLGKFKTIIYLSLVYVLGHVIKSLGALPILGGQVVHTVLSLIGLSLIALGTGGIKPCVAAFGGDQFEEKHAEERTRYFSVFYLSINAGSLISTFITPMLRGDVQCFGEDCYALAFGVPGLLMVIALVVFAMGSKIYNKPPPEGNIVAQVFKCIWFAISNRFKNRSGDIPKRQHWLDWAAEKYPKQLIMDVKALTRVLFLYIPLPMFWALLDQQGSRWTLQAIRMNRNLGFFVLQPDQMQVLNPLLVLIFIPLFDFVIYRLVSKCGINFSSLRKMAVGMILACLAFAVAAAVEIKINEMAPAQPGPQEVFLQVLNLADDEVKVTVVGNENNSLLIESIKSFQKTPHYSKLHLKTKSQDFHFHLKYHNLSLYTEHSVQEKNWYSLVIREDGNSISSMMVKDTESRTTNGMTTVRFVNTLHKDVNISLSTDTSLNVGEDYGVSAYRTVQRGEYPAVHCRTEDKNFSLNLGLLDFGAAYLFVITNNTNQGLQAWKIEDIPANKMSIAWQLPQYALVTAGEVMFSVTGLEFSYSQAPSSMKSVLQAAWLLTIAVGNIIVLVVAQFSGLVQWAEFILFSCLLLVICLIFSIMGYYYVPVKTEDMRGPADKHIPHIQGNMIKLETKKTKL
Procedure: The described cells were plated onto standard 24-well tissue culture plates at densities of 5 × 10^5 cells/well. […] Before starting the experiment, the cells were prepared by removing the medium and washing the cells twice with 300 µL of assay buffer. […] The cells were lysed by adding 300 µL of 0.1N NaOH, they were incubated for 10 min at 37 °C and 100 µL samples were taken from all the wells.
The amount of protein in each well was quantified using the BCA kit for protein determination (Sigma-Aldrich, St Louis, MO, USA). Positive controls were performed using a separate 96-well plate format according to Table S8 in SI4.
SI4. Results of transporter substrate assays (SLC)
Table S8: Parameters of positive controls, control cell lines and plating for SLC transporters assays.
KH: Krebs-Henseleit buffer, HBSS: Hank's balanced salt solution, MES: 2 -(N-morpholino) ethanesulfonic acid, cGMP:
Guanosine cyclic phosphate, E3S: Estrone -3-sulfate, Gly-Sar: Glycylsarcosine, MPP+: 1-methyl-4-phenylpyridinium.
Calculation of fold accumulation values for SLC transporter substrate assays The fold accumulation value was defined as the ratio of uptake of the test substance (TS) or probe substrate into transfected and control cells. If the fold accumulation is > 2 and can be inhibited by a known inhibitor of the transporter, the test substance can be considered as a substrate of the respective transporter.
Fold accumulation = UPTTRP
• UPTTRP: accumulated amount of test substance (TS) or probe substrate in transfected cells normalized by protein content […]
• UPTCTRL: accumulated amount of test substance (TS) or probe substrate in control cells normalized by protein content […]
Positive control conducted at pH 5.0.
Gly-Sar: Glycylsarcosine.

human OAT4 = molecular target: T2, human OAT4 (Homo sapiens, UniProt Q9NSA0); test: SLC transporter substrate assay, HEK293-OAT4-LV vs control HEK293-Mock-LV cells; details: 20 min
T2 sequence (Q9NSA0 1-550): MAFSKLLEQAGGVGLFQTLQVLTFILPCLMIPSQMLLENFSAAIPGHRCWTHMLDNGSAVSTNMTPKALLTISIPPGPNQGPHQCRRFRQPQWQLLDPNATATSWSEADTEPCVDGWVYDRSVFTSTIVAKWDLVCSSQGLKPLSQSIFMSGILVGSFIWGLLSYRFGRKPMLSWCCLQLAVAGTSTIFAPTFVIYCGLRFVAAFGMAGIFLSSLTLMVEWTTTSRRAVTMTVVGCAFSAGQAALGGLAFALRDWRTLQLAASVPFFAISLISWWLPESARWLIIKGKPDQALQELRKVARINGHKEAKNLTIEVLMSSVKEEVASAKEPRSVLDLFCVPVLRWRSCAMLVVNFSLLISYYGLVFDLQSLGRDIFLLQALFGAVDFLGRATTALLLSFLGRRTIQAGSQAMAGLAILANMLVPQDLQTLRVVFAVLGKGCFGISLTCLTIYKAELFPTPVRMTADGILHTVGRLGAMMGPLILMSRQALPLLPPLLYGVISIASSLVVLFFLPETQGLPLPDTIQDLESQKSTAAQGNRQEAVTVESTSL

[1] = pH 5.0, 0.03 µM nominal + Cefadroxil 200 µM
[2] = pH 5.0, 0.03 µM nominal, no inhibitor
[3] = pH 5.0, 0.30 µM nominal + Cefadroxil 200 µM
[4] = pH 5.0, 0.30 µM nominal, no inhibitor
[5] = pH 6.0, 0.03 µM nominal + Cefadroxil 200 µM
[6] = pH 6.0, 0.03 µM nominal, no inhibitor
[7] = pH 6.0, 0.30 µM nominal + Cefadroxil 200 µM
[8] = pH 6.0, 0.30 µM nominal, no inhibitor
[9] = 0.03 µM nominal + Benzbromarone 300 µM
[10] = 0.30 µM nominal + Benzbromarone 300 µM

Structure (SMILES): [3H]C(c1ccc2ccccc2c1)C([3H])(NC(=O)C1CCC(CNC(=O)CN2CCN(CC(=O)[O-])CCN(CC(=O)[O-])CCN(CC(=O)[O-])CC2)CC1)C(=O)NCCCCC(NC(=O)NC(CCC(=O)O)C(=O)O)C(=O)O.[Lu+3] (stereo not drawn) [([α,β-^3H]Nal)Lu-PSMA-617]
- Uptake via transporter (PEPT2) (human PEPT2; pH 5.0 and 6.0, absence and presence of cefadroxil): not taken up
- Accumulation in PEPT2 transporter expressing cells (human PEPT2; [1]): 0.16 ± 0.03 pmol/mg protein
- Accumulation in control cells (human PEPT2; [1]): 0.08 ± 0.00 pmol/mg protein
- Accumulation, active transport (human PEPT2; [1]): 0.08 ± 0.03 pmol/mg protein
- Fold accumulation (human PEPT2; [1]): 1.94
- Accumulation in PEPT2 transporter expressing cells (human PEPT2; [2]): 0.16 ± 0.03 pmol/mg protein
- Accumulation in control cells (human PEPT2; [2]): 0.12 ± 0.01 pmol/mg protein
- Accumulation, active transport (human PEPT2; [2]): 0.04 ± 0.03 pmol/mg protein
- Fold accumulation (human PEPT2; [2]): 1.34
- Accumulation in PEPT2 transporter expressing cells (human PEPT2; [3]): 1.58 ± 0.48 pmol/mg protein
- Accumulation in control cells (human PEPT2; [3]): 0.70 ± 0.12 pmol/mg protein
- Accumulation, active transport (human PEPT2; [3]): 0.88 ± 0.50 pmol/mg protein
- Fold accumulation (human PEPT2; [3]): 2.27
- Accumulation in PEPT2 transporter expressing cells (human PEPT2; [4]): 1.70 ± 0.50 pmol/mg protein
- Accumulation in control cells (human PEPT2; [4]): 0.87 ± 0.16 pmol/mg protein
- Accumulation, active transport (human PEPT2; [4]): 0.83 ± 0.53 pmol/mg protein
- Fold accumulation (human PEPT2; [4]): 1.95
- Max. transporter-specific fold accumulation, without inhibitor (human PEPT2; pH 5.0): 1.95
- Max. transporter-specific fold accumulation, with inhibitor (human PEPT2; pH 5.0): 2.27
- Accumulation in PEPT2 transporter expressing cells (human PEPT2; [5]): 0.17 ± 0.05 pmol/mg protein
- Accumulation in control cells (human PEPT2; [5]): 0.08 ± 0.01 pmol/mg protein
- Accumulation, active transport (human PEPT2; [5]): 0.09 ± 0.05 pmol/mg protein
- Fold accumulation (human PEPT2; [5]): 2.21
- Accumulation in PEPT2 transporter expressing cells (human PEPT2; [6]): 0.15 ± 0.05 pmol/mg protein
- Accumulation in control cells (human PEPT2; [6]): 0.10 ± 0.04 pmol/mg protein
- Accumulation, active transport (human PEPT2; [6]): 0.06 ± 0.06 pmol/mg protein
- Fold accumulation (human PEPT2; [6]): 1.57
- Accumulation in PEPT2 transporter expressing cells (human PEPT2; [7]): 1.57 ± 0.55 pmol/mg protein
- Accumulation in control cells (human PEPT2; [7]): 0.70 ± 0.16 pmol/mg protein
- Accumulation, active transport (human PEPT2; [7]): 0.88 ± 0.58 pmol/mg protein
- Fold accumulation (human PEPT2; [7]): 2.26
- Accumulation in PEPT2 transporter expressing cells (human PEPT2; [8]): 1.57 ± 0.45 pmol/mg protein
- Accumulation in control cells (human PEPT2; [8]): 0.87 ± 0.07 pmol/mg protein
- Accumulation, active transport (human PEPT2; [8]): 0.70 ± 0.45 pmol/mg protein
- Fold accumulation (human PEPT2; [8]): 1.81
- Max. transporter-specific fold accumulation, without inhibitor (human PEPT2; pH 6.0): 1.81
- Max. transporter-specific fold accumulation, with inhibitor (human PEPT2; pH 6.0): 2.26
- Accumulation in OAT4 transporter expressing cells (human OAT4; [9]): 0.03 ± 0.01 pmol/mg protein
- Accumulation in control cells (human OAT4; [9]): 0.02 ± 0.00 pmol/mg protein
- Accumulation, active transport (human OAT4; [9]): 0.01 ± 0.01 pmol/mg protein
- Fold accumulation (human OAT4; [9]): 1.47
- Accumulation in OAT4 transporter expressing cells (human OAT4; 0.03 µM nominal, no inhibitor): 0.04 ± 0.01 pmol/mg protein
- Accumulation in control cells (human OAT4; 0.03 µM nominal, no inhibitor): 0.03 ± 0.00 pmol/mg protein
- Accumulation, active transport (human OAT4; 0.03 µM nominal, no inhibitor): 0.01 ± 0.01 pmol/mg protein
- Fold accumulation (human OAT4; 0.03 µM nominal, no inhibitor): 1.22
- Accumulation in OAT4 transporter expressing cells (human OAT4; [10]): 0.40 ± 0.12 pmol/mg protein
- Accumulation in control cells (human OAT4; [10]): 0.49 ± 0.14 pmol/mg protein
- Accumulation, active transport (human OAT4; [10]): -0.09 ± 0.18 pmol/mg protein
- Fold accumulation (human OAT4; [10]): 0.81
- Accumulation in OAT4 transporter expressing cells (human OAT4; 0.30 µM nominal, no inhibitor): 0.35 ± 0.11 pmol/mg protein
- Accumulation in control cells (human OAT4; 0.30 µM nominal, no inhibitor): 0.22 ± 0.05 pmol/mg protein
- Accumulation, active transport (human OAT4; 0.30 µM nominal, no inhibitor): 0.13 ± 0.12 pmol/mg protein
- Fold accumulation (human OAT4; 0.30 µM nominal, no inhibitor): 1.58
- Max. transporter-specific fold accumulation, without inhibitor (human OAT4; 0.3 µM): 1.58
- Uptake via transporter (OAT4) (human OAT4; absence and presence of benzbromarone): not taken up
- Max. transporter-specific fold accumulation, with inhibitor (human OAT4; Benzbromarone, 0.3 µM): 0.81
